Our source for the Vd and IC50 values is patent US9492453B2 (priority 2007, dated 2016).

Series [1] in a line: Human dose prediction (estimated human pharmacokinetic parameters). Conditions: plasma; from rat and dog Vss corrected by Fu, human/Fu (rat or dog); read-out: Human Vss (Volume of Distribution at Steady State), estimated.
The subject of the next series is PKB (Akt). The conditions noted are these: read-out: Cellular PKB Mean IC50; MDA-MB-468 cells, phosphorylation of Serine-9 of GSK-3β, 2 hours incubation.
Another series addresses AKT1 (PKBα) (Homo sapiens (Human), UniProt P31749). The conditions noted are these: read-out: In vitro PKBα Mean IC50, AKT1/PKBα active enzyme, Caliper LabChip LC3000.

Read-outs that look alike come from different tables or passages of the source.

Chain of AKT1 (PKBα) (P31749 whole entry): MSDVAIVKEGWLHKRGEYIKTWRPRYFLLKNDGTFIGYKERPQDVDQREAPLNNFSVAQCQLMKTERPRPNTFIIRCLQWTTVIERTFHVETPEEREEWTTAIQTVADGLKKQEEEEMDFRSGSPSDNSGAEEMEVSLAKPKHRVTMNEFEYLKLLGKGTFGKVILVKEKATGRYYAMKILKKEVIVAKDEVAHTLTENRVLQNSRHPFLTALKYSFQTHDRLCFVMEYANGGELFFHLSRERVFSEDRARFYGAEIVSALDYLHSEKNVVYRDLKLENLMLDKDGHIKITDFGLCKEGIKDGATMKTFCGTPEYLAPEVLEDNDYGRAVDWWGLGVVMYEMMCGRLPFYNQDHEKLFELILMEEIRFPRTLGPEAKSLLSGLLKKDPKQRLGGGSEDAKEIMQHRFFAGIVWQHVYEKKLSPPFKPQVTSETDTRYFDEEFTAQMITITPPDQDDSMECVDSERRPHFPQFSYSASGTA

Consider `NC1(C(=O)N[C@@H](CCO)c2ccc(Cl)cc2)CCN(c2ncnc3[nH]ccc23)CC1` [Example 9, (S)-4-amino-N-(1-(4-chlorophenyl)-3-hydroxypropyl)-1-(7H-pyrrolo[2,3-d]pyrimidin-4-yl)piperidine-4-carboxamide], for which the Vd in series [1] is 3.3 L/kg.

Regarding `NC(=O)NCCC(NC(=O)C1(N)CCN(c2ncnc3[nH]ccc23)CC1)c1ccc(Cl)cc1` (centres unmarked) [Example 67, 4-amino-N-(1-(4-chlorophenyl)-3-ureidopropyl)-1-(7H-pyrrolo[2,3-d]pyrimidin-4-yl)piperidine-4-carboxamide], the IC50 – broadly, the concentration needed to halve the response being measured – with PKB (Akt) amounted to 890 nM; on AKT1 (PKBα) (tested once only), 7.7 nM.

Consider `N#CCC(NC(=O)C1(N)CCN(c2ncnc3[nH]ccc23)CC1)c1ccc(Cl)cc1` (centres unmarked) [Example 68, 4-amino-N-(1-(4-chlorophenyl)-2-cyanoethyl)-1-(7H-pyrrolo[2,3-d]pyrimidin-4-yl)piperidine-4-carboxamide], for which the results for the half-maximal inhibitory concentration (IC50) with PKB (Akt) and on AKT1 (PKBα) were 340 nM and 12 nM, respectively.
